Source: ChEMBL document CHEMBL1240525, “Synthesis of cyclic di-nucleotidic acids as potential inhibitors targeting diguanylate cyclase” (Bioorg Med Chem, 2010)
Activity calls are given as the source filed them. The rule behind the calls is not given here.

What was measured:
[1] = Inhibition of Synechocystis sp. recombinant diguanylate cyclase Slr1143 expressed in Escherichia coli DH5alpha after 2 mins
Synechocystis sp. = assay: Inhibition of Synechocystis sp. recombinant diguanylate cyclase Slr1143 expressed in Escherichia coli DH5alpha at 100 uM after 2 mins

| IC50 [1] [µM] | inhibition (Synechocystis sp.) | SMILES |
| --- | --- | --- |
| 68.9 | 60% | O=P1(O)OC[C@H]2O[C@H](n3cnc4c(O)ncnc43)[C@H](O)[C@@H]2OP(=O)(O)OC[C@@H]2O[C@H](n3cnc4c(O)ncnc43)[C@@H](O)[C@H]2O1 |
|  | Active | O=c1ccn([C@H]2O[C@@H]3COP(=O)(O)O[C@@H]4[C@H](O)[C@@H](n5ccc(=O)[nH]c5=O)O[C@H]4COP(=O)(O)O[C@H]3[C@H]2O)c(=O)[nH]1 |
